Test results as given in patent publication US10758627B2, “Peptide-polynucleotide complex for polynucleotide transfection” (Washington University, priority 2015, dated 2020).

System: B16 cells stably expressing GFP-PEST
Test: Screening for siRNA knockdown: delivery of GFP siRNA for knockdown of GFP in B16 GFP cells
Format: cell-based
Conditions: for Able to transfect?: peptide/GFP siRNA particle
Method: Knockdown of B16 cells stably expressing GFP-PEST allowed quick screening for effective siRNA knockdown of GFP expression because the PEST sequence shortens GFP half-life from 26 to 10 hours. Melittin derivatives were chosen based on modifications designed to decrease cytotoxicity as well as improve interactions with oligonucleotides. These peptides were screened for their ability to deliver GFP siRNA for the knockdown of GFP in B16 GFP cells (Table 1, FIG. 1).
The melittin derivatives were formulated by Genscript (Piscataway, N.J.), dissolved at 10 mM in RNAse/DNAse free water (Sigma, St. Louis, Mo.) and stored in 4 μl aliquots at −80° C. before use. Transfection complexes were prepared by diluting the peptide 1:200 in phosphate buffered saline (PBS, Sigma), vortexed for 30 seconds, followed by addition of the appropriate amount of siRNA (stock concentration of 10 μM in 1× siRNA buffer (Thermo)) and incubated for 40 minutes at 37° C. with shaking in an Eppendorf Thermomixer R. Resulting nanoparticles were analyzed for siRNA incorporation by resolution on a 12% polyacrylamide gel followed by ethidium bromide staining. Dynamic light scattering (DLS) and zeta potential measurements were performed on a Zeta Plus particle sizer (Brookhaven Instruments, Newton, Mass.). Serum stability analysis was performed by incubating freshly formed peptide/siRNA nanoparticles in 10 mg/ml Human Serum Albumin (HSA, Sigma) overnight followed by DLS and zeta potential measurements.
B16F10 and RAW264.7 (ATCC, Manassas, Va.) cell lines can be maintained under standard cell culture conditions (37° C. and 5% CO2 in a humidified incubator) in DMEM (Gibco, Carlsbad, Calif.) supplemented with 10% fetal bovine serum (Gibco). B16F10 cells stably expressing GFP can be produced as follows. B16F10 can be transfected (Lipofectamine 2000, Invitrogen) with a fusion of EGFP (pEGFP-N1, Clontech) and the PEST sequence from mouse ornithine decarboxylase (S421-V461) in pEF6V5HisTOPO (Invitrogen). Cells are selected for four rounds with cell sorting by flow cytometry without antibiotic selection. Typically, an aliquot of cells can be maintained in continuous culture for a month without a noticeable change in EGFP expression level. Human umbilical vein endothelial cells (HUVECs) can be purchased from Lifeline Technologies (Frederick, Md.) and cultured in VascuLife Basal Medium (Lifeline Technologies) supplemented with 5 ng/mL EGF, 5 ng/ml bFGF, 15 ng/mL IGF-1, 50 μg/mL ascorbic acid, 1 μg/mL hydrocortisone hem isuccinate, 0.75 U/mL Heparin Sulfate, 10 mM L-glutamine, 2% fetal bovine serum in accordance with manufacturer instructions.
For transfection, cells can be plated in 6 well plates 12 hours before transfection and cultured under standard cell culture conditions. Peptide/siRNA nanoparticles are prepared and incubated with cells for 4 hours in a final volume of 1 mL Optimem I (Gibco) or appropriate media supplemented with 10% FBS. Transfections are scaled accordingly for cells plated in 12 well plates based on cell culture surface area. After transfection, cells are washed twice with PBS and incubated with standard cell culture medium for another 24-72 hours before analysis. Lipofectamine 2000 can be used in accordance with the manufacturer's protocol. Briefly, Lipofectamine 2000 is diluted in Optimem I to a final concentration of 8.4 μg/ml and incubated at room temperature for 15 minutes. siRNA is then added to the diluted lipid and incubated for another 40 minutes before dilution to 1 mL total volume with Optimem I for transfection. Suitable eGFP siRNA can be purchased from Sigma. siGENOME mouse MAPK9 siRNA1, siGENOME mouse STAT3 siRNA2, and siGENOME human STAT3 siRNA2 gene specific siRNAs can be purchased from Dharmacon (Lafayette, Colo.). Scrambled siRNA can be purchased from Qiagen (Valencia, Calif.).

[1] = charge ratio (+/−) 6:1 (peptide/siRNA 28:1 to 62:1 depending on peptide)
[2] = charge ratio (+/−) 12:1 (peptide/siRNA 56:1 to 124:1 depending on peptide)
[3] = charge ratio (+/−) 24:1 (peptide/siRNA 112:1 to 248:1 depending on peptide)
[4] = ratio of peptide:polynucleotide between 50:1 and 200:1

Compound	toxicity to cells in the tested concentration range (B16 GFP cells, concentration range of the screen)	Able to transfect? [1]	Able to transfect? [2]	Able to transfect? [3]	ability to transfect (ratio of 50:1)	ability to transfect (ratio of peptide:polynucleotide less than 50:1)	GFP knockdown [4]	ability to transfect [4]
CC[C@H](C)[C@H](NC(=O)CN)C(=O)NCC(=O)N[C@@H](C)C(=O)N[C@H](C(=O)N[C@@H](CC(C)C)C(=O)N[C@@H](CCCCN)C(=O)N[C@H](C(=O)N[C@@H](CC(C)C)C(=O)N[C@H](C(=O)N[C@H](C(=O)NCC(=O)N[C@@H](CC(C)C)C(=O)N1CCC[C@H]1C(=O)N[C@@H](C)C(=O)N[C@@H](CC(C)C)C(=O)N[C@H](C(=O)N[C@@H](CO)C(=O)N[C@@H](Cc1c[nH]c2ccccc12)C(=O)N[C@H](C(=O)N[C@@H](CCCCN)C(=O)N[C@@H](CCCNC(=N)N)C(=O)N[C@@H](CCCCN)C(=O)N[C@@H](CCCNC(=N)N)C(=O)N[C@@H](CCC(N)=O)C(=O)N[C@@H](CCC(N)=O)C(N)=O)[C@@H](C)CC)[C@@H](C)CC)[C@@H](C)O)[C@@H](C)O)C(C)C)C(C)C [Melittin]	too toxic	No	Toxic	Toxic	–	–	–	–
VLTTGLPALISWIKRKRQHRWRRRR [Peptide 5RWRH]	–	Yes	No	No	did not work	able to transfect	–	–
VLTTGLPALISWIKRKRQQC [Peptide 5C]	–	No	No	No	–	–	–	–
VLTTGLPALISWIKRKRQQRWRRRR [Peptide 5RWR]	–	No	No	No	–	–	–	–
VLTTGLPALISWIRRRHRRHC [Peptide 5RHH]	–	Yes	Yes	Yes	–	–	exhibited GFP knockdown	able to transfect
